In patent US20240110200A1, “Recombinant AAV Vectors and Gene Therapies for Treating Brain Diseases” (City University of Hong Kong, priority 2022, published 2024):
*1 amine or outer side, *2 acyl side, *3 side chain or, on linkers, in order; H or OH if unused. Where a SMILES comes first, the peptide text is derived from it. Where no end group is shown, it is not given here. Side-chain parts run from the residue outwards. [ ]: non-standard residue; d: D form. The star is where a group is joined. NMeF = CN[C@@H](Cc1ccccc1)C(=O)O; NH(2-Me-phenyl) = Cc1ccccc1N*; Boc = CC(C)(C)OC(=O)*; CO = O=C([*:1])[*:2]; Ahx = NCCCCCC(=O)O

Legend:
[1] = tested on: pyramidal neurons (CCK-GABA synapses) in the AC; assay: In vitro patch-clamp recording of laser-evoked IPSC in pyramidal neurons of auditory cortex brain slices; format: cell-based, CCK-Cre mice
Description: In the experiments of FIGS. 2-3, a protective cutting and recovery method is adopted in preparing acute brain slices of CCK-Cre, PV-Cre, CCK-KO, and CCK1R/2R-KO mice to achieve a higher success rate for patch-clamp, as previously described in Chen, X., et al., Natl. Acad. Sci., Vol. 116, pp. 2019. Briefly, the anaesthetized mice are perfused transcardially with NMDG-aCSF (92 mM NMDG, 2.5 mM KCl, 1.25 mM NaH2PO4, 30 mM NaHCO3, 20 mM HEPES, 25 mM glucose, 2 mM thiourea, 5 mM Na-ascorbate, 3 mM Na-pyruvate, 0.5 mM CaCl2·4H2O, and 10 mM MgSO4·7H2O; pH 7.3-7.4), and the brain is extracted and cut into 300 μm-thick sections. The slices are transferred to NMDG-aCSF for 10 min at 32-34° C. to allow protective recovery and then to room-temperature HEPES-aCSF (92 mM NaCl, 2.5 mM KCl, 1.25 mM NaH2PO4, 30 mM NaHCO3, 20 mM HEPES, 25 mM glucose, 2 mM thiourea, 5 mM Na-ascorbate, 3 mM Na-pyruvate, 2 mM CaCl2·4H2O, and 2 mM MgSO4·7H2O; pH 7.3-7.4) for at least 1 h before recording.
Whole-cell recordings (with Multiclamp 700B amplifier and Digital 1440A digitizer, Molecular Devices, www.moleculardevices.com, Menlo Park, California, USA), targeting the AC of the brain slices in room-temperature aCSF (119 mM NaCl, 2.5 mM KCl, 1.25 mM NaH2PO4, 24 mM NaHCO3, 12.5 mM glucose, 2 mM CaCl2·4H2O and 2 mM MgSO4·7H2O, ˜25° C.) are performed. Patch pipettes are pulled with resistance between 3-5 MQ from borosilicate glass (WPI, World Precision Instruments; UK; httpss://www.wpiinc.com/) on a Sutter-87 puller (Sutter Instrument; CA, US, https://www.sutter.com/). The intracellular solution contains: 145 mM K-Gluconate, 10 mM HEPES, 1 mM EGTA, 2 mM Mg-ATP, 0.3 mM Na2-GTP, and 2 mM MgCl2; pH 7.3; 290-300 mOsm. Similarly, after Giga-Ohm seal formation, recordings are made and then terminated if Rs changes more than 20%. Pyramidal neurons are selected based on the pyramidal-like shape and the firing pattern of regular spiking by injecting step currents.
Laser stimulation is applied through an optical fiber placed ˜200 μm from the recording neuron using Aurora-220 (473 nm, NEWDOON, Changchun, China; http://www.newdoon.com/) to activate ChR2^+ neurons (GABAergic). In the examples, only neurons that respond to the laser pulse is recruited. HFLS (10-pulse burst at 40 Hz, repeated for 10 trials) or Low-frequency Laser Stimulation (LFLS, 1 Hz, 100 pulses) with a 15-s interval is delivered. Inhibitory postsynaptic currents (IPSCs) to the laser stimulation (1 pulse per 15 s, 5 ms in duration) under voltage-clamp recording mode (holding at −60 mV to −50 mV) are recorded for 5 min as the baseline before and for 25 min after the HFLS or LFLS.
For the normalization of recorded IPSC in the CCK-Cre, PV-Cre, CCK-KO, and CCK1R/2R-KO mice, only the patched neurons are recruited when the IPSC is greater than 35 pA.

GPR173 [2] = target: T1, GPR173 (Homo sapiens, UniProt Q9NS66); assay: Antagonism of CCK1R/2R antagonists to GPR173; format: cell-based
Description: (§1) All measurements of calcium imaging are performed by EnVision 2104 Multilabel Reader (Perkin Elmer, Waltham, Massachusetts, US, https://www.perkinelmer.com, excitation: 485 nm and emission: 535 nm). […] Cells are cultured at 37° C., 5% CO2 in DMEM/F-12 medium (Thermo Fisher, Waltham, MA, US, https://www.thermofisher.cn) containing 10% FBS (Natocor-Industria Biológica) and washed with DMEM/F-12 medium once after overnight incubation.

GPR173 [3] = target: T1, GPR173; assay: Calcium imaging assay in CHO-GPR173 cell line; format: cell-based; details: for calcium signal in CHO-GPR173 cells: after incubation with the peptide
Description: as §1

Flag-GPR173 = target: T2, Flag-GPR173 (Homo sapiens, UniProt Q9NS66); assay: Cell surface binding assay, HEK293T cells transfected with Flag-GPR173; details: CCK-binding assay, FIG. 4B
T2 construct: host or cells: HEK293T
Description: HEK293T cells are transfected with pCDNA3.1(+)-Flag-GPCR (purchased from Public Protein/Plasmid Library, Nanjing, China, http://ppl.biogot.com; or home-made by us based on pCDNA3.1(+) backbone). The cells are incubated with HA-ε-Ahx-ε-Ahx or HA-(ε-Ahx)2-CCK8s dissolved in HHBS solution (Hank's solution including 20 mM N-2-hydroxyethylpiperazine-N′-2-ethanesulfonic acid (HEPES), pH=7.4) for 30 min at room temperature, 48 h after transfection by Lipo6000 (Beyotime Biotechnology, Shanghai, China, https://www.beyotime.com/). After three washes with HHBS, cells are fixed in 4% paraformaldehyde and 4% sucrose in PBS for 15 min at room temperature. Cells are blocked in 5% normal goat serum in PBS, and staining is performed in detergent-free conditions without cell permeabilization after three washes by PBS. Primary antibody rabbit anti-HA (CST, 3724 Boston, US, https://www.cellsignal.com), anti-GPR173 (PA5-50976, ThermoFisher, Waltham, MA, US, https://www.thermofisher.cn) and mouse anti-Flag (CST-8146, Boston, US, https://www.cellsignal.com) are used to detect HA and Flag tags. For binding assay of pCDNA3.1(+)-AcGFP-CCK1R, only rabbit anti-HAprimary antibody is used to detectHAtag. Images are captured on a Leica SP8 confocal microscope (Leica Microsystems, Danaher Corporation, US, https://www.leica-microsystems.com/). […]

[4] = target: T3, Flag-HTR1B on transfected HEK293T cells (UniProt P28222 1-390); assay: cell surface binding assay on HEK293T cells transfected with Flag-tagged GPCRs, anti-HA and anti-Flag staining, confocal
T3 construct: whole, on cells
T3 sequence (P28222 whole entry): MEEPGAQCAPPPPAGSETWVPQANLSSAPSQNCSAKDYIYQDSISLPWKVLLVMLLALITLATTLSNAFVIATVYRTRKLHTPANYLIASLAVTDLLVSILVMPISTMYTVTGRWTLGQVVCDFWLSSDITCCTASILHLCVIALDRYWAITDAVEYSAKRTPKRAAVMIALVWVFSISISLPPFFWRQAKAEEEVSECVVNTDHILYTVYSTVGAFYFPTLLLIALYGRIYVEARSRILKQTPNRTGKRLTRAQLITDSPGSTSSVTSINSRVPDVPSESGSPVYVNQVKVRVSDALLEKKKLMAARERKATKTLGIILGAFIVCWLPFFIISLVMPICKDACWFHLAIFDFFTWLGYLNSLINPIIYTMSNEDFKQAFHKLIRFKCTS
Description: HEK293T cells are transfected with pCDNA3.1(+)-Flag-GPCR (purchased from Public Protein/Plasmid Library, Nanjing, China, http://ppl.biogot.com; or home-made by us based on pCDNA3.1(+) backbone). […] After three washes with HHBS, cells are fixed in 4% paraformaldehyde and 4% sucrose in PBS for 15 min at room temperature. Cells are blocked in 5% normal goat serum in PBS, and staining is performed in detergent-free conditions without cell permeabilization after three washes by PBS. […] For binding assay of pCDNA3.1(+)-AcGFP-CCK1R, only rabbit anti-HAprimary antibody is used to detectHAtag. Images are captured on a Leica SP8 confocal microscope (Leica Microsystems, Danaher Corporation, US, https://www.leica-microsystems.com/). Images within each experiment are collected using identical laser-power, offset, and gain.

T1 sequence (Q9NS66 whole entry, species assumed): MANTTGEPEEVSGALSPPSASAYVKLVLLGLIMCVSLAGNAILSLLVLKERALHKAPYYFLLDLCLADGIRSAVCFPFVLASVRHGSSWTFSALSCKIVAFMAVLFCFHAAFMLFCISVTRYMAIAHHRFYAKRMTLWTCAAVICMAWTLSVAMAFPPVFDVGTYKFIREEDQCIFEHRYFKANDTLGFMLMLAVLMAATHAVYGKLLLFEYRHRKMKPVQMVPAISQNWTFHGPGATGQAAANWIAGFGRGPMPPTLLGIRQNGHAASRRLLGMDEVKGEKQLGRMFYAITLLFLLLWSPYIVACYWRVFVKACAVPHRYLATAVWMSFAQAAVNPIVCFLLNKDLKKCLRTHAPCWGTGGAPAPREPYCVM
T2 sequence (Q9NS66 whole entry): as the sequence (Q9NS66 whole entry, species assumed) above

CN1C(=O)[C@@H](NC(=O)c2cc3ccccc3[nH]2)N=C(c2ccccc2)c2ccccc21 [Devazepide]
blockade of HFLS-induced iLTP ([1]; Devazepide 60 nM in bath solution): entirely blocks the iLTP | normalized IPSC 20-25 min after Devazepide infusion and the HFLS ([1]; Devazepide 60 nM in bath solution, baseline 100.18±1.91, HFLS alone 183.70±6.25%, n=8): 103.24±2.54% | IC50 (GPR173 [2]): 0.0123 ± 0.00341 µM

CCK8s
normalized IPSC amplitude 25-30 min after CCK8s+1 Hz ([1]; 200-nM CCK8s bath application 3 min before LFLS (1 Hz, 100 pulses), baseline 100.00±2.53, n=8 neurons): 161.84±4.38% | iLTP after CCK8s followed by LFLS ([1]; CCK8s+1 Hz group vs aCSF+1 Hz): large iLTP | calcium signal in CHO-GPR173 cells (GPR173 [3]): strong calcium response | binding affinity of Flag-GPR173 with CCK8s (Flag-GPR173): prominent binding affinity

CNc1cccc(NC(=O)N[C@@H]2N=C(c3ccccn3)c3ccccc3N(CC(=O)C(C)(C)C)C2=O)c1 [YF476]
IC50 (GPR173 [2]): 3.1 µM

CCCCCN(CCCOC)C(=O)C(CCC(=O)O)NC(=O)c1ccc(Cl)c(Cl)c1 (centres unmarked) [Loxiglumide]
IC50 (GPR173 [2]): 0.715 ± 0.0994 µM

CCK4: CCK2R-selective agonist
calcium signal in CHO-GPR173 cells (GPR173 [3]): evokes no response

Phoenixin (DVQPPGLKVWSDPF) [PNX, Phoenixin, peptide claimed in the literature to act through GPR173]
calcium signal in CHO-GPR173 cells (GPR173 [3]): no calcium signal

Cc1cccc(NC(=O)N[C@@H]2N=C(c3ccccc3)c3ccccc3N(C)C2=O)c1 [L365,260]
IC50 (GPR173 [2]): 16.9 µM

Cc1ccccc1NC(=O)NCCCC[C@H](NC(=O)[C@H](Cc1c[nH]c2ccccc12)NC(=O)OC(C)(C)C)C(=O)N[C@@H](CC(=O)O)C(=O)N(C)[C@@H](Cc1ccccc1)C(N)=O [A-71623] (Boc-WK([CO-NH(2-Me-phenyl)])D[NMeF]-NH2)
activation of the CHO-GPR173 cell line (GPR173 [3]; even at 100 μM): does not activate

B1: HA2A8s (HA-ε-Ahx-ε-Ahx-CCK8s) (peptide, UniProt P06307 96-103, looked up, not shown: small tags and cut ends)
peptide: {HA tag-Ahx-Ahx}-DYMGWMDF
modifications: ends and bridges not checked; also: sulphated CCK8, site not given here
notes: Chemically synthesised; also called HA-(ε-Ahx)2-CCK8s; HA-labeled CCK8s
binding result [4]: no binding
